Results: US10172549B2, “Methods of facilitating positioning of electrodes” (Cardionomic, Inc., priority 2016, dated 2019)

Tested on: right ventricle contractility and left ventricle contractility
Assay: Heartbeat-by-heartbeat correlation of right and left ventricle contractility after a change, max(dP/dt) from pressure sensors as surrogate for contractility
Type: in vivo, ovine
Settings: after injection
Source text: The correlation was a heartbeat-by-heartbeat analysis. Pressure measurements, taken by a Millar catheter comprising a MEMS pressure sensor, in units of max(dP/dt) was used as a surrogate for contractility.
The first change, a dobutamine injection, provided a very high contractility increase greater than 500%. The average correlation between right ventricle contractility and left ventricle contractility was very good at 0.91, where 1.00 is a perfect correlation. Accordingly, if a subject is given a dobutamine injection, measuring changes to right ventricle contractility can provide accurate information about changes to left ventricle contractility. The first change was repeated three times.
The second change, calcium injection at 5 mL, provided a contractility increase of about 20%. […] The average correlation between right ventricle contractility and left ventricle contractility using a Millar (MEMS) sensor on a catheter was very good at 0.91. The average correlation between right ventricle contractility and left ventricle contractility using a fluid-filled lumen of a Swan-Ganz catheter in communication with an external pressure sensor was also very good at 0.87. Accordingly, under certain circumstances such as measurement of an animal (normal, non-HF ovine model) model, if a subject is given a calcium injection, measuring changes to right ventricle contractility with a MEMS sensor or a fluid filled lumen can provide accurate information about changes to left ventricle contractility.
The fourth change, neurostimulation as described herein, provided a contractility increase of about 28%. The correlation between right ventricle contractility and left ventricle contractility was very good at 0.90. Accordingly, if a subject is given neurostimulation, measuring changes to right ventricle contractility can provide accurate information about changes to left ventricle contractility. […] Thereafter, the left ventricle contractility tapered off logarithmically or exponentially, but the right ventricle contractility decreased very slowly. These differences help to show why the correlation between left ventricle contractility and right ventricle contractility are poorly correlated for calcium injections. The fourth change was not repeated.

Row | Compound | Contractility % Increase [%] | Contractility % Increase (listed as dobutamine injection) | Contractility % Increase (listed as calcium injection)
1 | CC(CCc1ccc(O)cc1)NCCc1ccc(O)c(O)c1 (stereo not shown) [Dobutamine Injection, dobutamine] | >500 | greater than 500% | 
2 | calcium [Calcium Injection] | ~20 |  | about 20%
